According to US20230278958A1 (Merck Patent GmbH, priority 2020, published 2023):

Columns and labels:
NCI-H226 cells = assay: Viability assay in NCI-H226 (Yap-dependent) cells, CyQUANT; assay type: cell-based; settings: Homo sapiens, 96 hour incubation
Method: The ability of YAP-TEAD inhibitors to inhibit tumor cell growth was evaluated using two different cell lines: NCI-H226, which is a YAP dependent cell line, and SW620 cells, where YAP and TAZ were knocked out using CRISPR to generate a YAP independent cell line.
For the assay, cells were treated in duplicates with the test compounds in a 10-point dose, 1:3 dilution steps, with the top concentration starting at 30 μM (final concentration in assay). After a 96 hour incubation at 37° C., 95% rH, and 5% CO2, a cell-permeant DNA-binding dye that stains only healthy cells (CyQUANT®, Promega) was added to the cells, allowing the quantification of cell viability.
Cell Media: The NCI-H226 cells were cultured in the following media: RPMI 1640, +10% FBS, +1× GlutaMAX, +10 mM HEPES, +0.5% Pen/Strep. The SW620-KO cells were cultured in the following media: DMEM/F-12, +10% FBS, +1× GlutaMAX, +10 mM HEPES, +0.5% Pen/Strep.
(§1) Reagents: The reagents used are listed below:
(§2) Cell culture: The cells were examined using an inverted microscope to check for health, cell density, etc. To dissociate adherent cells, the monolayer of cells was washed once with pre-warmed PBS. After removing the PBS, 3 ml pre-warmed Accutase was added to a F75 flask, dispersed evenly and the flask was allowed to sit in incubator for ˜4-5 minutes.
(§3) When a single cell suspension was obtained, 7 ml of prewarmed growth media was added and resuspended with the cells. The cell suspension was transferred to a sterile 15 ml conical centrifuge tube, and spun for 5 min at 300×g, RT. The supernatant was discarded and the pellet was resuspended in 10 ml of pre-warmed growth media.
(§4) The total cell count was determined, and 20 μl of the desired cell number was added to each well of a 384 well plate using a Multidrop Combi. The plates were then incubated for 24 hours at 37° C., 95% rH, and 5% CO2.
(§5) Compound treatment: 24 hours after seeding, the cells were treated with compounds.
(§6) A 1:333 dilution of compounds, diluted in DMSO, was made to get a final concentration of 0.3% DMSO per well. To transfer the compounds to the assay plate, 120 nl was shot from Labcyte low dead volume plates to the cell plates containing 20 μl media/well with the ECHO 555 liquid handling system.
(§7) After treatment, the cells were fed with 20 μl fresh pre-warmed assay media using a Multidrop combi.
The assay plates were then incubated for 96 h at 37° C., 95% rH, and 5% CO2.
96h after treatment 30 μl of CyQuant® reagent was added to the assay plates using a Multidrop combi in the dark. The plates were then incubated for 1 hour at 37° C., 95% rH and 5% CO2. Thereafter, the assay plates were removed from the incubator and allowed to equilibrate to RT for 30 min in the dark without lid. Finally, they were measured using an EnVision microplate reader with a FITC bottom read program.
Experimental data in the Viability assay of the compounds shown in Table 1 are shown in Table 3 below and classified in the following groups: […]

YAP-TEAD interaction = assay: SK-HEP-1 reporter assay (8x TEAD responsive elements driving NanoLuc luciferase); assay type: cell-based; settings: Homo sapiens, SK-HEP1; SK-HEP-1 TEAD-NanoLuc reporter cells, 24 hour incubation, luciferase readout
Method: To identify inhibitors of YAP-TEAD interaction, 8× TEAD responsive elements driving the NanoLuc® luciferase gene were stably integrated into SK-HEP-1 cells (ECACC #: 91091816).
For the assay, cells were treated in duplicates with the test compounds in a 10-point dose, with the top concentration starting at 30 μM (final concentration in assay). After a 24 hour incubation at 37° C., 95% rH, and 5% CO2, a luciferase substrate/lysis reagent mix (NanoGlo™, Promega) was added to the cells, allowing the quantification of cellular luciferase activity.
Cell Media: The cells were cultured in the following media: MEM, +10% FBS, +1× GlutaMAX, +1 mM Sodium-Pyruvate, +100 μM Non-essential amino acids, +0.1 mg/ml Hygromycin. The media used for the assay was: MEM (w/o Phenol Red), +10% FBS, +1× GlutaMAX, +1 mM Sodium-Pyruvate, +100 μM Non-essential amino acids, +0.5% Pen/Strep
as §1
as §2, with “health and” for “health,”, “density.” for “density, etc.”, “Accutase®” for “Accutase”
as §3, §4, §5, §6, §7
The assay plates were then incubated for another 24 h at 37° C., 95% rH, and 5% CO2.
Luciferase readout: 24 h after treatment, the plates were taken out of the incubator and were allowed to equilibrate to RT. 30 μl of NanoGlo® reagent was added to the plates in the dark. Plates were shaken for 20 min on a Teleshake (˜1500 rpm) in the dark. The luminescence was then measured using an EnVision microplate reader. The IC50 values were generated using Genedata Screener®.
Experimental data in SK-HEP-1 reporter assay of the compounds shown in Table 1 are shown in Table 2 below and classified in the following groups: […]

Row | Structure (SMILES) | melting point | IC50 (NCI-H226 cells) | IC50 (YAP-TEAD interaction)
1 | O=C(O)c1ccc2c(c1)c1cc(F)ccc1n2-c1ccc(C(F)(F)F)cc1 [Compound 11, 6-fluoro-9-[4-(trifluoromethyl)phenyl]-9H-carbazole-3-carboxylic acid] | 202 to 204 °C | 0.1 to 1 µM | 10 to 100 nM
2 | CC(C)c1ccc2c(c1)c1cc(C(=O)O)ccc1n2-c1ccc(C(F)(F)F)cc1 [Compound 13, 6-(propan-2-yl)-9-[4-(trifluoromethyl)phenyl]-9H-carbazole-3-carboxylic acid] | 271 to 272 °C | 0.1 to 1 µM | 10 to 100 nM
3 | O=C(O)c1ccc2c(c1)c1cc(C(F)(F)F)ccc1n2-c1ccc(C(F)(F)F)cc1 [Compound 14, 6-(trifluoromethyl)-9-[4-(trifluoromethyl)phenyl]-9H-carbazole-3-carboxylic acid] | 292 to 294 °C | 0.1 to 1 µM | 1 to 10 nM
4 | O=C(O)c1ccc2c(c1)c1nc(C(F)(F)F)ccc1n2-c1ccc(C(F)(F)F)cc1 [Compound 16, 2-(trifluoromethyl)-5-[4-(trifluoromethyl)phenyl]-5H-pyrido[3,2-b]indole-8-carboxylic acid] | 160 to 162 °C | 0.001 to 0.1 µM | 10 to 100 nM
5 | Cc1ccc2c(n1)c1cc(C(=O)O)ccc1n2-c1ccc(C(F)(F)F)cc1 [Compound 17, 2-methyl-5-[4-(trifluoromethyl)phenyl]-5H-pyrido[3,2-b]indole-8-carboxylic acid] | 300 °C | 0.001 to 0.1 µM | 1 to 10 nM
6 | O=C(O)c1ccc2c(c1)c1nc(F)ccc1n2-c1ccc(C(F)(F)F)cc1 [Compound 18, 2-fluoro-5-[4-(trifluoromethyl)phenyl]-5H-pyrido[3,2-b]indole-8-carboxylic acid] | 300 °C | 0.1 to 1 µM | 10 to 100 nM
7 | COc1ccc2c(n1)c1cc(C(=O)O)ccc1n2-c1ccc(C(F)(F)F)cc1 [Compound 19, 2-methoxy-5-[4-(trifluoromethyl)phenyl]-5H-pyrido[3,2-b]indole-8-carboxylic acid] | 245 to 247 °C | 0.1 to 1 µM | 1 to 10 nM
8 | Cc1ccc2c3cc(C(=O)O)ccc3n(-c3ccc(C(F)(F)F)cc3)c2c1 [Compound 20, 7-methyl-9-[4-(trifluoromethyl)phenyl]-9H-carbazole-3-carboxylic acid] | 250 to 252 °C | 1 to 10 µM | 10 to 100 nM
9 | CNC(=O)c1ccc2c(c1)c1cc(F)ccc1n2-c1ccc(C(F)(F)F)cc1 [Compound 23, 6-fluoro-N-methyl-9-[4-(trifluoromethyl)phenyl]-9H-carbazole-3-carboxamide] | 270 to 272 °C | 0.001 to 0.1 µM | 10 to 100 nM
10 | CNC(=O)c1ccc2c(c1)c1nc(F)ccc1n2-c1ccc(C(F)(F)F)cc1 [Compound 25, 2-fluoro-N-methyl-5-[4-(trifluoromethyl)phenyl]-5H-pyrido[3,2-b]indole-8-carboxamide] | 250 to 252 °C | – | 100 to 1000 nM
11 | CNC(=O)c1ccc2c(c1)c1ccc(C)cc1n2-c1ccc(C(F)(F)F)cc1 [Compound 26, N,7-dimethyl-9-[4-(trifluoromethyl)phenyl]-9H-carbazole-3-carboxamide] | 230 to 232 °C | 0.1 to 1 µM | 10 to 100 nM
12 | CNC(=O)c1ccc2c(c1)c1nc(C(F)(F)F)ccc1n2-c1ccc(C(F)(F)F)cc1 [Compound 29, N-methyl-2-(trifluoromethyl)-5-[4-(trifluoromethyl)phenyl]-5H-pyrido[3,2-b]indole-8-carboxamide] | 225 to 227 °C | > 10 µM | 100 to 1000 nM
13 | O=C(O)c1cc2c3cccnc3n(Cc3ccc(C(F)(F)F)cc3)c2cn1 [Compound 34, 8-{[4-(trifluoromethyl)phenyl]methyl}-5,8,10-triazatricyclo[7.4.0.0^2,^7]trideca-1(9),2,4,6,10,12-hexaene-4-carboxylic acid] | 195 to 200 °C | – | 100 to 1000 nM
